# Source: patent US11931343B2 (ARCUS BIOSCIENCES, INC., priority 2018, dated 2024)
# Target: T1, human CD73 (Homo sapiens, UniProt P21589)
# T1 sequence (P21589 27-549): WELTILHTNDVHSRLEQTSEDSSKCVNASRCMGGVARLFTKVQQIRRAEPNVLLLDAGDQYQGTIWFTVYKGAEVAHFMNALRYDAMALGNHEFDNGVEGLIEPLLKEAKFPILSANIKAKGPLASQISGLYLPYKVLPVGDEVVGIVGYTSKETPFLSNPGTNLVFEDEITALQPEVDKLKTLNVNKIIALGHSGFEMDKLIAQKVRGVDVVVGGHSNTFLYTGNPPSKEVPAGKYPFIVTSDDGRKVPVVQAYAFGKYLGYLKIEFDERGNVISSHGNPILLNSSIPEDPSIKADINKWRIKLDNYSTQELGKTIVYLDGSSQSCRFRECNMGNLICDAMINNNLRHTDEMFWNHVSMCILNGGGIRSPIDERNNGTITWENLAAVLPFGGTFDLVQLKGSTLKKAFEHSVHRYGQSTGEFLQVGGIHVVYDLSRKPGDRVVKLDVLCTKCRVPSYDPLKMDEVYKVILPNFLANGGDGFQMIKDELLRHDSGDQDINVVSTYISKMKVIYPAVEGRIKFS
# Experiment: Inhibition of Ecto-5′-nucleotidase (CD73) activity in CHO-CD73 cells, phosphate release from AMP
# Assay type: cell-based
# Conditions: CHO-K1 cells stably transfected with human CD73; 25 μM AMP; 50 minutes, 37° C.; read-out: Potency: CD73 IC50
row,Compound,IC50
1,CS(=O)(=O)c1cccc(-n2nccc2-c2cc(Cl)c3nnn(-c4ccc5[nH]c(=O)[nH]c5c4)c3c2)c1 [Example 301],0.1 to 1 µM
2,N#CCc1ccc(Cn2nccc2-c2cc(F)c3nnn(-c4ccc5[nH]c(=O)[nH]c5c4)c3c2)cc1 [Example 319],> 1 µM
3,Cc1cc(C#N)ccc1Cn1nccc1-c1cc(F)c2nnn(-c3ccc4[nH]c(=O)[nH]c4c3)c2c1 [Example 302],0.1 to 1 µM
4,Cc1cnc(-c2cc(C#N)ccc2Cn2nccc2-c2cc(F)c3nnn(-c4ccc5[nH]c(=O)[nH]c5c4)c3c2)o1 [Example 321],0.1 to 1 µM
5,O=c1[nH]c2ccc(-n3nnc4c(F)cc(-c5ccnn5CCc5ccccc5Cl)cc43)cc2[nH]1 [Example 221],> 1 µM
6,Cc1cc(F)ccc1Cn1nccc1-c1cc(Cl)c2nnn(-c3ccc4[nH]c(=O)[nH]c4c3)c2c1 [Example 208],0.1 to 1 µM
7,c1cc(-c2ccc3nnn(-c4ccc5cn[nH]c5c4)c3c2)n(CC2CCCCO2)n1 (centres unmarked) [Example 93],> 1 µM
8,N#Cc1cnc(Cn2nccc2-c2cc(F)c3nnn(-c4ccc5[nH]c(=O)[nH]c5c4)c3c2)c2ccccc12 [Example 318],> 1 µM
9,O=c1[nH]c2ccc(-n3nnc4c(Cl)cc(-c5ccnn5Cc5ccc(F)c(F)c5)cc43)cc2[nH]1 [Example 254],0.1 to 1 µM
10,Cc1cc(F)cnc1Cn1nccc1-c1cc(F)c2nnn(-c3ccc4cn[nH]c4c3)c2c1 [Example 88],> 1 µM
11,Nc1cccc(-n2nnc3c(Cl)cc(-c4ccnn4Cc4ccc(Cl)cc4Cl)cc32)c1 [Example 162],> 1 µM
12,N#Cc1ccc(Cn2nccc2-c2cc(F)c3nnn(-c4ccc5[nH]c(=O)[nH]c5c4)c3c2)c(CNCC2CCCC2)c1 [Example 296],0.1 to 1 µM
13,CN(C(=O)Cn1nccc1-c1cc(Cl)c2nnn(-c3ccc4cn[nH]c4c3)c2c1)c1ccccc1 [Example 187],> 1 µM
14,Cc1cc(C)cc(-n2nccc2-c2cc(Cl)c3nnn(-c4ccc5[nH]c(=O)[nH]c5c4)c3c2)c1 [Example 241],0.1 to 1 µM
15,Cc1cc(-n2nccc2-c2cc(Cl)c3nnn(-c4ccc5[nH]c(=O)[nH]c5c4)c3c2)ccn1 [Example 293],0.1 to 1 µM

# Second part, the compound after the results:
row,IC50,Compound
1,> 1 µM,N#Cc1ccc(Cn2nccc2-c2cc(F)c3nnn(-c4ccc5c(CNS(N)(=O)=O)n[nH]c5c4)c3c2)cc1 [Example 347]
2,0.1 to 1 µM,Cc1ccc(C(C)n2nccc2-c2cc(Cl)c3nnn(-c4ccc5cn[nH]c5c4)c3c2)nc1 (centres unmarked) [Example 380]
3,> 1 µM,Cc1cccc(-n2nccc2-c2cc3c(cc2C)nnn3-c2ccc3cn[nH]c3c2)c1 [Example 406]
4,0.1 to 1 µM,CC(c1ccc(Cl)c[n+]1[O-])n1nccc1-c1cc(Cl)c2nnn(-c3ccc4cn[nH]c4c3)c2c1 (centres unmarked) [Example 379]
5,> 1 µM,CC(c1ccccc1)n1nccc1-c1cc(F)c2nnn(-c3ccc4cn[nH]c4c3)c2c1 (centres unmarked) [Example 71]
6,> 1 µM,CCc1nn(-c2ccc3cn[nH]c3c2)c2cc(-c3ccnn3Cc3ccc(C#N)cc3)cnc12 [Example 370]
7,0.1 to 1 µM,CC(c1ccc(C#N)cc1)n1nccc1-c1cc2c(cc1F)nnn2-c1ccc2cn[nH]c2c1 (centres unmarked) [Example 382]
8,0.1 to 1 µM,Cc1cnc(Cn2nccc2-c2cc(Cl)c3nnn(-c4ccc5cn[nH]c5c4)c3c2)c(F)c1 [Example 74]
9,0.1 to 1 µM,Fc1cc(-c2ccnn2Cc2ccccn2)cc2c1nnn2-c1ccc2cn[nH]c2c1 [Example 85]
10,> 1 µM,Fc1cccnc1Cn1nccc1-c1ccc2nnn(-c3ccc4cn[nH]c4c3)c2c1 [Example 98]
11,0.1 to 1 µM,FC(F)(F)c1ccc(Cn2nccc2-c2cc(Cl)c3nnn(-c4ccc5cn[nH]c5c4)c3c2)cc1 [Example 69]
12,0.1 to 1 µM,N#Cc1ccc(Cn2nccc2-c2cc(F)c3nnn(-c4ccc5c(=O)[nH][nH]c5c4)c3c2)cc1 [Example 350]
13,0.1 to 1 µM,Clc1ccc(Cn2nccc2-c2cc(Cl)c3nnn(-c4ccc5cn[nH]c5c4)c3c2)c(Br)c1 [Example 109]
14,0.1 to 1 µM,CC(c1ccc(Cl)c[n+]1[O-])n1c(-c2cc3c(cc2F)nnn3-c2ccc3cn[nH]c3c2)cc[n+]1[O-] (centres unmarked) [Example 387]
